Laboratory results as given in ChEMBL document CHEMBL3286327, “Cyclohexadepsipeptides of the isaridin class from the marine-derived fungus Beauveria felina EN-135” (J Nat Prod, 2014).
In brackets after ≈: the same amount, converted by molar mass. Numbered stars: 1 amine (or outer) side, 2 acyl side, 3 side chain; on linkers, the order of the positions; unused ones are H or OH. Square brackets hold non-standard residues; d marks the D form. Peptide text beside a SMILES is read from it. X1 = C[C@H]1CCN([*:1])[C@@H]1C(=O)[*:2]; NMeF = CN[C@@H](Cc1ccccc1)C(=O)O; Hica(2S) = CC(C)C[C@H](O)C(=O)O; NMeL = CN[C@@H](CC(C)C)C(=O)O; NMeV = CN[C@H](C(=O)O)C(C)C; βAla = NCCC(=O)O

How the values were obtained:
Escherichia coli = test: Antibacterial activity against Escherichia coli after 24 hrs; assay type: functional
Artemia salina = test: Toxicity in Artemia salina at 100 ug/ml; assay type: organism-based; details: in vivo

| MIC (Escherichia coli) [µg/mL] | SMILES | Activity (Artemia salina) |
| --- | --- | --- |
| 64 (≈ 93.3 µM) | CC(C)C[C@@H]1OC(=O)CCNC(=O)[C@H](CC(C)C)N(C)C(=O)[C@H](C(C)C)N(C)C(=O)[C@H](Cc2ccc(O)cc2)NC(=O)[C@@H]2CCCN2C1=O (cyclo([Hica(2S)]PY[NMeV][NMeL][βAla])) | Non-toxic |
| 64 (≈ 95.3 µM) | CC(C)C[C@@H]1NC(=O)[C@H](C(C)C)N(C)C(=O)[C@H](Cc2ccc(O)cc2)NC(=O)[C@@H]2CCCN2C(=O)[C@H](CC(C)C)OC(=O)CCNC1=O (cyclo(L[βAla][Hica(2S)]PY[NMeV])) | Non-toxic |
|  | CC(C)C[C@@H]1OC(=O)CCNC(=O)[C@H](Cc2ccccc2)N(C)C(=O)[C@H](C(C)C)N(C)C(=O)[C@H](Cc2ccccc2)NC(=O)[C@@H]2CCCN2C1=O (cyclo(F[NMeV][NMeF][βAla][Hica(2S)]P)) | Non-toxic |
|  | CC(C)C[C@@H]1OC(=O)CCNC(=O)[C@H](Cc2ccccc2)N(C)C(=O)[C@H](C(C)C)N(C)C(=O)[C@H](Cc2ccccc2)NC(=O)[C@@H]2[C@@H](C)CCN2C1=O (cyclo(F[NMeV][NMeF][βAla][Hica(2S)][X1])) | Non-toxic |
| 8 (≈ 12.2 µM) | CC(C)C[C@@H]1NC(=O)[C@H](C(C)C)N(C)C(=O)[C@H](Cc2ccccc2)NC(=O)[C@@H]2CCCN2C(=O)[C@H](CC(C)C)OC(=O)CCNC1=O (cyclo(F[NMeV]L[βAla][Hica(2S)]P)) | Non-toxic |

| SMILES | MIC (Escherichia coli) [µg/mL] | Activity (Artemia salina) |
| --- | --- | --- |
| CC(C)C[C@@H]1OC(=O)CCNC(=O)[C@H](C(C)C)N(C)C(=O)[C@H](C(C)C)N(C)C(=O)[C@H](Cc2ccccc2)NC(=O)[C@@H]2CCCN2C1=O (cyclo(F[NMeV][NMeV][βAla][Hica(2S)]P)) | 16 (≈ 24.4 µM) | Non-toxic |
| O=C(N[C@H](CO)[C@H](O)c1ccc([N+](=O)[O-])cc1)C(Cl)Cl [CHLORAMPHENICOL] | 4 (≈ 12.4 µM) |  |
